{
  "source": "patent US20150010928A1",
  "about": "“MEANS AND METHODS FOR ASSESSING AN ENDOCRINE DISEASE OR DISORDER” (priority 2012, published 2015)",
  "system": "female rats",
  "assay": "Plasma metabolite profiling (GC-MS, LC-MS, SPE-LC-MS) in female rats dosed once daily over 28 days (OECD 407)",
  "type": "in vivo, rat",
  "conditions": "high dose",
  "how_it_was_run": "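Polar and lipid fractions profiled by GC-MS and LC-MS/MRM, steroids by online SPE-LC-MS; pool-normalized data compared to controls by Welch test as treatment ratios and p-values.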",
  "note": "Marks after values point to notes of the source that are not given here.",
  "data": [
    {"compound": "C[C@]12CCC(=O)C=C1CC[C@@H]1[C@@H]2CC[C@@]2(C)[C@H]1CC[C@]2(C)O", "note": "[17-alpha-Methyltestosterone]", "values": [
      {"measurement": "3-Hydroxybutyrate", "setting": "f7, female rats, Table 15a", "result": "1.5*"},
      {"measurement": "DAG (C18:1,C18:2)", "setting": "f7, female rats, Table 15a", "result": "3.01 *"},
      {"measurement": "Glutamate", "setting": "f7, female rats, Table 15a", "result": "1.56 *"},
      {"measurement": "Glycine", "setting": "f7, female rats, Table 15a", "result": "1.28 *"},
      {"measurement": "Phosphatidylcholine (C16:0,C20:5)", "setting": "f7, female rats, Table 15a", "result": "1.22 *"},
      {"measurement": "TAG (C16:0,C16:1)", "setting": "f7, female rats, Table 15a", "result": "3.85 *"},
      {"measurement": "TAG (C16:0,C18:1,C18:3)", "setting": "f7, female rats, Table 15a", "result": "8.68 *"},
      {"measurement": "TAG (C16:0,C18:2)", "setting": "f7, female rats, Table 15a", "result": "4.63 *"},
      {"measurement": "TAG (C18:1,C18:2)", "setting": "f7, female rats, Table 15a", "result": "5.83 *"},
      {"measurement": "TAG (C18:2,C18:2)", "setting": "f7, female rats, Table 15a", "result": "4.67 *"},
      {"measurement": "TAG (C18:3, C18:2, C18:1)", "setting": "f7, female rats, Table 15a", "result": "6.36*"},
      {"measurement": "TAG (DAG-Fragment)", "setting": "f7, female rats, Table 15a", "result": "5.82 *"},
      {"measurement": "TAG No 059", "setting": "f7, female rats, Table 15a", "result": "3.27 *"},
      {"measurement": "Threonic acid", "setting": "f7, female rats, Table 15a", "result": "1.65 *"},
      {"measurement": "trans-4-Hydroxyproline", "setting": "f7, female rats, Table 15a", "result": "1.4 *"},
      {"measurement": "Arginine", "setting": "f7, female rats, Table 15b", "result": "0.69 *"},
      {"measurement": "Campesterol", "setting": "f7, female rats, Table 15b", "result": "0.65 *"},
      {"measurement": "Ceramide (d18:1,C24:0)", "setting": "f7, female rats, Table 15b", "result": "0.79 *"},
      {"measurement": "Lactate", "setting": "f7, female rats, Table 15b", "result": "0.47 *"},
      {"measurement": "Lysine", "setting": "f7, female rats, Table 15b", "result": "0.49 *"},
      {"measurement": "Metanephrine", "setting": "f7, female rats, Table 15b", "result": "0.78 *"},
      {"measurement": "Normetanephrine", "setting": "f7, female rats, Table 15b", "result": "0.61 *"},
      {"measurement": "Phosphatidylcholine (C16:0,C20:5)", "setting": "f7, female rats, Table 15b", "result": 1.22},
      {"measurement": "Phosphatidylcholine (C16:0,C22:6)", "setting": "f7, female rats, Table 15b", "result": "0.86 *"},
      {"measurement": "Phosphatidylcholine (C18:0, C20:3)", "setting": "f7, female rats, Table 15b", "result": "0.69 *"},
      {"measurement": "Phosphatidylcholine (C18:0,C18:1)", "setting": "f7, female rats, Table 15b", "result": "0.78 *"},
      {"measurement": "Pyruvate", "setting": "f7, female rats, Table 15b", "result": "0.52 *"},
      {"measurement": "Sphingomyelin (d18:1,C23:0)", "setting": "f7, female rats, Table 15b", "result": "0.56 *"},
      {"measurement": "Sphingomyelin (d18:1,C24:0)", "setting": "f7, female rats, Table 15b", "result": "0.67 *"},
      {"measurement": "Urea", "setting": "f7, female rats, Table 15b", "result": "0.72 *"},
      {"measurement": "3-Hydroxybutyrate", "setting": "f14, female rats, Table 15a", "result": "2.03 *"},
      {"measurement": "DAG (C18:1,C18:2)", "setting": "f14, female rats, Table 15a", "result": "3.17 *"},
      {"measurement": "Glutamate", "setting": "f14, female rats, Table 15a", "result": "1.43 *"},
      {"measurement": "Glycine", "setting": "f14, female rats, Table 15a", "result": "1.15 *"},
      {"measurement": "Phosphatidylcholine (C16:0,C20:5)", "setting": "f14, female rats, Table 15a", "result": "1.15 *"},
      {"measurement": "TAG (C16:0,C16:1)", "setting": "f14, female rats, Table 15a", "result": "2.59 *"},
      {"measurement": "TAG (C16:0,C18:1,C18:3)", "setting": "f14, female rats, Table 15a", "result": "7.54 *"},
      {"measurement": "TAG (C16:0,C18:2)", "setting": "f14, female rats, Table 15a", "result": "4.63 *"},
      {"measurement": "TAG (C18:1,C18:2)", "setting": "f14, female rats, Table 15a", "result": "4.5 *"},
      {"measurement": "TAG (C18:2,C18:2)", "setting": "f14, female rats, Table 15a", "result": "5.09 *"},
      {"measurement": "TAG (C18:3, C18:2, C18:1)", "setting": "f14, female rats, Table 15a", "result": "5.29 *"},
      {"measurement": "TAG (DAG-Fragment)", "setting": "f14, female rats, Table 15a", "result": "5.43 *"},
      {"measurement": "TAG No 059", "setting": "f14, female rats, Table 15a", "result": "4.08 *"},
      {"measurement": "Threonic acid", "setting": "f14, female rats, Table 15a", "result": "2.84 *"},
      {"measurement": "trans-4-Hydroxyproline", "setting": "f14, female rats, Table 15a", "result": "1.56 *"},
      {"measurement": "Arginine", "setting": "f14, female rats, Table 15b", "result": "0.67 *"},
      {"measurement": "Campesterol", "setting": "f14, female rats, Table 15b", "result": "0.62 *"},
      {"measurement": "Ceramide (d18:1,C24:0)", "setting": "f14, female rats, Table 15b", "result": "0.7 *"},
      {"measurement": "Lactate", "setting": "f14, female rats, Table 15b", "result": "0.34 *"},
      {"measurement": "Lysine", "setting": "f14, female rats, Table 15b", "result": "0.49 *"},
      {"measurement": "Metanephrine", "setting": "f14, female rats, Table 15b", "result": "0.66 *"},
      {"measurement": "Normetanephrine", "setting": "f14, female rats, Table 15b", "result": "0.65 *"},
      {"measurement": "Phosphatidylcholine (C16:0,C20:5)", "setting": "f14, female rats, Table 15b", "result": 1.15},
      {"measurement": "Phosphatidylcholine (C16:0,C22:6)", "setting": "f14, female rats, Table 15b", "result": "0.78 *"},
      {"measurement": "Phosphatidylcholine (C18:0, C20:3)", "setting": "f14, female rats, Table 15b", "result": "0.76 *"},
      {"measurement": "Phosphatidylcholine (C18:0,C18:1)", "setting": "f14, female rats, Table 15b", "result": "0.94 *"},
      {"measurement": "Pyruvate", "setting": "f14, female rats, Table 15b", "result": "0.35 *"},
      {"measurement": "Sphingomyelin (d18:1,C23:0)", "setting": "f14, female rats, Table 15b", "result": "0.52 *"},
      {"measurement": "Sphingomyelin (d18:1,C24:0)", "setting": "f14, female rats, Table 15b", "result": "0.6 *"},
      {"measurement": "Urea", "setting": "f14, female rats, Table 15b", "result": "0.63 *"},
      {"measurement": "3-Hydroxybutyrate", "setting": "f28, female rats, Table 15a", "result": "1.49 *"},
      {"measurement": "DAG (C18:1,C18:2)", "setting": "f28, female rats, Table 15a", "result": "2.97 *"},
      {"measurement": "Glutamate", "setting": "f28, female rats, Table 15a", "result": "1.58 *"},
      {"measurement": "Glycine", "setting": "f28, female rats, Table 15a", "result": "1.29 *"},
      {"measurement": "Phosphatidylcholine (C16:0,C20:5)", "setting": "f28, female rats, Table 15a", "result": "1.17*"},
      {"measurement": "TAG (C16:0,C16:1)", "setting": "f28, female rats, Table 15a", "result": "2.04 *"},
      {"measurement": "TAG (C16:0,C18:1,C18:3)", "setting": "f28, female rats, Table 15a", "result": "9.21*"},
      {"measurement": "TAG (C16:0,C18:2)", "setting": "f28, female rats, Table 15a", "result": "5.09 *"},
      {"measurement": "TAG (C18:1,C18:2)", "setting": "f28, female rats, Table 15a", "result": "5.32 *"},
      {"measurement": "TAG (C18:2,C18:2)", "setting": "f28, female rats, Table 15a", "result": "8.15 *"},
      {"measurement": "TAG (C18:3, C18:2, C18:1)", "setting": "f28, female rats, Table 15a", "result": "7.3*"},
      {"measurement": "TAG (DAG-Fragment)", "setting": "f28, female rats, Table 15a", "result": "6.9 *"},
      {"measurement": "TAG No 059", "setting": "f28, female rats, Table 15a", "result": "5.2 *"},
      {"measurement": "Threonic acid", "setting": "f28, female rats, Table 15a", "result": "2.29 *"},
      {"measurement": "trans-4-Hydroxyproline", "setting": "f28, female rats, Table 15a", "result": "1.61 *"},
      {"measurement": "Arginine", "setting": "f28, female rats, Table 15b", "result": "0.59 *"},
      {"measurement": "Campesterol", "setting": "f28, female rats, Table 15b", "result": "0.66 *"},
      {"measurement": "Ceramide (d18:1,C24:0)", "setting": "f28, female rats, Table 15b", "result": "0.52 *"},
      {"measurement": "Lactate", "setting": "f28, female rats, Table 15b", "result": "0.52 *"},
      {"measurement": "Lysine", "setting": "f28, female rats, Table 15b", "result": "0.52 *"},
      {"measurement": "Metanephrine", "setting": "f28, female rats, Table 15b", "result": "0.81 *"},
      {"measurement": "Normetanephrine", "setting": "f28, female rats, Table 15b", "result": "0.66 *"},
      {"measurement": "Phosphatidylcholine (C16:0,C20:5)", "setting": "f28, female rats, Table 15b", "result": 1.17},
      {"measurement": "Phosphatidylcholine (C16:0,C22:6)", "setting": "f28, female rats, Table 15b", "result": "0.79 *"},
      {"measurement": "Phosphatidylcholine (C18:0, C20:3)", "setting": "f28, female rats, Table 15b", "result": "0.68 *"},
      {"measurement": "Phosphatidylcholine (C18:0,C18:1)", "setting": "f28, female rats, Table 15b", "result": "0.81 *"},
      {"measurement": "Pyruvate", "setting": "f28, female rats, Table 15b", "result": "0.4 *"},
      {"measurement": "Sphingomyelin (d18:1,C23:0)", "setting": "f28, female rats, Table 15b", "result": "0.42 *"},
      {"measurement": "Sphingomyelin (d18:1,C24:0)", "setting": "f28, female rats, Table 15b", "result": "0.52 *"},
      {"measurement": "Urea", "setting": "f28, female rats, Table 15b", "result": "0.8*"}
    ]}
  ]
}
